44 molecules from patent US10493070B2 (priority 2016, dated 2019) can be followed below.

Each structure is given as a SMILES string. pEC50: −log10 of the molar value. Like-named read-outs stand apart in the source and are kept apart here. A value given as a limit tells only on which side of the number the result lay.

The assay has as its system recombinant NL4-3 virus (NLRluc, Renilla luciferase in nef, Gag P373S). Briefly: HIV cell culture assay (Renilla luciferase reporter virus in MT-2 cells). It counts as cell-based. The note with it: Renilla. The procedure:
MT-2 cells and 293T cells were obtained from the NIH AIDS Research and Reference Reagent Program. MT-2 cells were propagated in RPMI 1640 media supplemented with 10% heat inactivated fetal bovine serum, […]. The 293T cells were propagated in DMEM media supplemented with 10% heat inactivated fetal bovine serum (FBS), 100 units/ml penicillin G and 100 μg/ml streptomycin. The proviral DNA clone of NL4-3 was obtained from the NIH AIDS Research and Reference Reagent Program. A recombinant NL4-3 virus, in which a section of the nef gene from NL4-3 was replaced with the Renilla luciferase gene, was used as a reference virus. In addition, residue Gag P373 was converted to P373S. Briefly, the recombinant virus was prepared by transfection of the altered proviral clone of NL4-3. Transfections were performed in 293T cells using LipofectAMINE PLUS from Invitrogen (Carlsbad, Calif.), according to manufacturer's instruction. The virus was titered in MT-2 cells using luciferase enzyme activity as a marker. Luciferase was quantitated using the Dual Luciferase kit from Promega (Madison, Wis.), with modifications to the manufacturer's protocol. The diluted Passive Lysis solution was pre-mixed with the re-suspended Luciferase Assay Reagent and the re-suspended Stop & Glo Substrate (2:1:1 ratio). Fifty (50) μL of the mixture was added to each aspirated well on assay plates and luciferase activity was measured immediately on a Wallac TriLux (Perkin-Elmer). Antiviral activities of inhibitors toward the recombinant virus were quantified by measuring luciferase activity in cells infected for 4-5 days with NLRluc recombinants in the presence serial dilutions of the inhibitor. Table 16 is the key for the data in Table 17.

[1] abbreviates: NL43, read-out: 10% FBS EC50, 10% FBS, numeric values.
The mark [2] stands for this setting: NL43, read-out: 10% FBS EC50, 10% FBS, class symbols A/B/C.

In the case of `CC1(C)C(c2ccc(C(=O)O)cc2)=CC[C@]2(C)CN(C(=O)c3[nH]c4ccccc4c3-c3ccccc3)CC=C12` [Example A112], under setting [1], the pEC50 is 5.96.
Consider `CC1(C)C(c2ccc(C(=O)O)cc2)=CC[C@]2(C)CN(C(=O)c3cncc(C(=O)N4CC=C5C(C)(C)C(c6ccc(C(=O)O)cc6)=CC[C@]5(C)C4)c3)CC=C12` [Example 63], for which the pEC50 under setting [2] is under 5.52.
As to `CC1(C)C(c2ccc(C(=O)O)cc2)=CC[C@]2(C)CN(c3nc4ccccc4s3)CC=C12` [Example 80], the pEC50 under setting [1] is 6.75.
On the same count and under the same terms, the value for `CC1(C)C(c2ccc(C(=O)O)cc2)=CC[C@]2(C)CN(C(=O)c3ccccc3-c3nc4cc5c(cc4[nH]3)OCO5)CC=C12` [Example A298] was 7.22.
With `CC1(C)C(c2ccc(C(=O)O)cc2)=CC[C@]2(C)CN(c3ccc(C(N)=O)cc3)CC=C12` [Example B17], the pEC50 under setting [2] is under 5.52.
Same read-out and setting: the value for `CC1(C)C(c2ccc(C(=O)O)cc2)=CC[C@]2(C)CN(CCN3CCS(=O)(=O)CC3)CC=C12` [Example 79] was under 5.52.
As to `CC1(C)C(c2ccc(C(=O)O)cc2)=CC[C@]2(C)CN(C(=O)c3ccccc3-c3nc4ccccc4o3)CC=C12` [Example A325], the pEC50 under setting [1] is 6.63.
Consider `CC1(C)C(c2ccc(C(=O)O)cc2)=CC[C@]2(C)CN(c3cc(F)cc(-c4nn[nH]n4)c3)CC=C12` [Example B7], for which, under setting [2], the pEC50 is under 5.52.
Regarding `CC1(C)C(c2ccc(C(=O)O)cc2)=CC[C@]2(C)CN(C(=O)c3ccc(C(=O)N4CC=C5C(C)(C)C(c6ccc(C(=O)O)cc6)=CC[C@]5(C)C4)cc3)CC=C12` [Example 59], the pEC50 under setting [1] is 5.98.
As for `CC1(C)C(c2ccc(C(=O)O)cc2)=CC[C@]2(C)CN(C3CCC(CN(CCN4CCS(=O)(=O)CC4)CCN4CCS(=O)(=O)CC4)(c4ccccc4)CC3)CC=C12` (stereo partly drawn) [Example C4, (S)-4-(2-(4-((bis(2-(1,1-dioxidothiomorpholino)ethyl)amino)methyl)-4-phenylcyclohexyl)-5,5,8a-trimethyl-1,2,3,5,8,8a-hexahydroisoquinolin-6-yl)benzoic acid], the pEC50 under setting [1] is under 5.52.
Take `CC1(C)C(c2ccc(C(=O)O)cc2)=CC[C@]2(C)CN(C(=O)c3cc(F)ccc3F)CC=C12` [Example 6]: the pEC50 under setting [2] was under 5.52.
On the same count and under the same terms, with `CC1(C)C(c2ccc(C(=O)O)cc2)=CC[C@]2(C)CN(C(=O)c3cccc(C(=O)NCCCN4CCS(=O)(=O)CC4)c3)CC=C12` [Example 66] the figure was under 5.52.
As to `Cc1ccc2oc(-c3ccccc3C(=O)N3CC=C4C(C)(C)C(c5ccc(C(=O)O)cc5)=CC[C@]4(C)C3)nc2c1` [Example A309], the pEC50 under setting [1] is 6.77.
With `CC1(C)C(c2ccc(C(=O)O)cc2)=CC[C@]2(C)CN(C(=O)CCN3CCS(=O)(=O)CC3)CC=C12` [Example 36], the pEC50 under setting [2] was under 5.52.
`Cc1cc2nc(-c3ccccc3C(=O)N3CC=C4C(C)(C)C(c5ccc(C(=O)O)cc5)=CC[C@]4(C)C3)[nH]c2cc1C` [Example 97, (S)-4-(2-(2-(5,6-dimethyl-1H-benzo[d]imidazol-2-yl)benzoyl)-5,5,8a-trimethyl-1,2,3,5,8,8a-hexahydroisoquinolin-6-yl)benzoic acid]: under setting [1], the pEC50 was 7.29.
For the molecule `CC1(C)C(c2ccc(C(=O)O)cc2)=CC[C@]2(C)CN(C(=O)C3(c4ccc(F)cc4)CCCC3)CC=C12` [Example A111], under setting [2], the pEC50 was under 5.52.
Take `CC(C)(C)OC(=O)N1CCC(Cc2ccccc2)(C(=O)N2CC=C3C(C)(C)C(c4ccc(C(=O)O)cc4)=CC[C@]3(C)C2)CC1` [Example 47]: the pEC50 under setting [1] is 5.97.
Same read-out and setting: with `CC1(C)C(c2ccc(C(=O)O)cc2)=CC[C@]2(C)CN(C(=O)c3ccccc3-c3nc4cc(F)c(Cl)cc4[nH]3)CC=C12` [Example A260] the figure was 6.53.
Still for that read-out and setting: with `COc1ccnc(N2CC=C3C(C)(C)C(c4ccc(C(=O)O)cc4)=CC[C@]3(C)C2)n1` [Example B13] the figure was 5.57.
Regarding `CC1(C)C(c2ccc(C(=O)O)cc2)=CC[C@]2(C)CN(C(=O)c3ccccc3-c3nc4cc(Cl)c(Cl)cc4n3CCc3ccccc3)CC=C12` [Example A277], the pEC50 under setting [1] is 5.65.
Still for that read-out and setting: the value for `CC(C)(C)OC(=O)NCCn1c(-c2ccccc2C(=O)N2CC=C3C(C)(C)C(c4ccc(C(=O)O)cc4)=CC[C@]3(C)C2)nc2cc(C(F)(F)F)ccc21` [Example A283] was 5.86.
On to `CC1(C)C(c2ccc(C(=O)O)cc2)=CC[C@]2(C)CN(C(=O)c3cc(F)cc(F)c3)CC=C12` [Example 8], for which, under setting [2], the pEC50 is under 5.52.
Take `CC1(C)C(c2ccc(C(=O)O)cc2)=CC[C@]2(C)CN(C(=O)c3ccc(C(N)=O)cc3)CC=C12` [Example 22]: the pEC50 under setting [2] is under 5.52.
As for `CC(=O)NCCn1c(-c2ccccc2C(=O)N2CC=C3C(C)(C)C(c4ccc(C(=O)O)cc4)=CC[C@]3(C)C2)nc2cc(C(=O)O)ccc21` [Example A294], the pEC50 under setting [2] was under 5.52.
`CC(C)(C)OC(=O)N1CCC(C(=O)N2CC=C3C(C)(C)C(c4ccc(C(=O)O)cc4)=CC[C@]3(C)C2)(C2CCCCC2)CC1` [Example 50]: under setting [1], the pEC50 is 6.54.
As for `Cc1nc2cc(C(=O)N3CC=C4C(C)(C)C(c5ccc(C(=O)O)cc5)=CC[C@]4(C)C3)ccc2[nH]1` [Example 41], the pEC50 under setting [2] was under 5.52.
As to `CC1(C)C(c2ccc(C(=O)O)cc2)=CC[C@]2(C)CN(c3ncc(Br)s3)CC=C12` [Example 77], the pEC50 under setting [2] was under 5.52.
Regarding `CC1(C)C(c2ccc(C(=O)O)cc2)=CC[C@]2(C)CN(C(=O)c3ccccc3N3CCN(CCN4CCS(=O)(=O)CC4)CC3)CC=C12` [Example 44], under setting [1], the pEC50 was 6.28.
Take `CN(C)c1ccccc1C(=O)N1CC=C2C(C)(C)C(c3ccc(C(=O)O)cc3)=CC[C@]2(C)C1` [Example 23]: the pEC50 under setting [2] was under 5.52.
Take `CC1(C)C(c2ccc(C(=O)O)cc2)=CC[C@]2(C)CN(C(=O)c3ccccc3-c3nc4ccccc4[nH]3)CC=C12` [Example A114]: the pEC50 under setting [1] is 7.28.
Same read-out and setting: with `CC1(C)C(c2ccc(C(=O)O)cc2)=CC[C@]2(C)CN(c3cc(NC(=O)CCN4CCS(=O)(=O)CC4)cc(-c4nnn(CCN5CCS(=O)(=O)CC5)n4)c3)CC=C12` [Example B4, (S)-4-(2-(3-(2-(2-(1,1-dioxidothiomorpholino)ethyl)-2H-tetrazol-5-yl)-5-(3-(1,1-dioxidothiomorpholino)propanamido)phenyl)-5,5,8a-trimethyl-1,2,3,5,8,8a-hexahydroisoquinolin-6-yl)benzoic acid] the figure was 5.77; with `COc1ccccc1C(=O)N1CC=C2C(C)(C)C(c3ccc(C(=O)O)cc3)=CC[C@]2(C)C1` [Example 17], 5.77.
In the case of `CC1(C)C(c2ccc(C(=O)O)cc2)=CC[C@]2(C)CN(C(=O)c3ccccc3-n3cccn3)CC=C12` [Example A58], the pEC50 under setting [1] is 5.73.
On the same count and under the same terms, with `CC1(C)C(c2ccc(C(=O)O)cc2)=CC[C@]2(C)CN(C(=O)c3ccccc3-c3nc4cc([N+](=O)[O-])ccc4[nH]3)CC=C12` [Example A273] the figure was 7.20.
Regarding `CC1(C)C(c2ccc(C(=O)O)cc2)=CC[C@]2(C)CN(C(=O)c3cccc(C(=O)NCCCN4CCS(=O)(=O)CC4)n3)CC=C12` [Example 70], the pEC50 under setting [2] was under 5.52.
On the same count and under the same terms, with `CC1(C)C(c2ccc(C(=O)O)cc2)=CC[C@]2(C)CN(C(=O)c3nc4ccccc4[nH]3)CC=C12` [Example A66] the figure was under 5.52; with `CC(C)C[C@@H](NC(=O)OC(C)(C)C)C(=O)N1CCC(C(=O)N2CC[C@H]3C(C)(C)[C@@H](c4ccc(C(=O)O)cc4)CC[C@]3(C)C2)(c2ccccc2)CC1` [Example 86], over 6.30.
Consider `CC1(C)C(c2ccc(C(=O)O)cc2)=CC[C@]2(C)CN(c3cccc(Br)n3)CC=C12` [Example 76], for which, under setting [1], the pEC50 was 6.01.
Regarding `CC1(C)C(c2ccc(C(=O)O)cc2)=CC[C@]2(C)CN(C(=O)CN3CCS(=O)(=O)CC3)CC=C12` [Example 37], under setting [2], the pEC50 is under 5.52.
Same read-out and setting: with `CC1(C)C(c2ccc(C(=O)O)cc2)=CC[C@]2(C)CN(C(=O)c3ccccc3C(=O)O)CC=C12` [Example 14] the figure was under 5.52.
Consider `CC(C)(C)OC(=O)N1CCN(c2ccccc2C(=O)N2CC=C3C(C)(C)C(c4ccc(C(=O)O)cc4)=CC[C@]3(C)C2)CC1` [Example 11, (S)-4-(2-(2-(4-(tert-butoxycarbonyl)piperazin-1-yl)benzoyl)-5,5,8a-trimethyl-1,2,3,5,8,8a-hexahydroisoquinolin-6-yl)benzoic acid], for which the pEC50 under setting [1] is 6.34.
Consider `CC1(C)C(c2ccc(C(=O)O)cc2)=CC[C@]2(C)CN(C(=O)c3ccccc3N3CCNCC3)CC=C12` [Example 51, (S)-4-(5,5,8a-trimethyl-2-(2-(piperazin-1-yl)benzoyl)-1,2,3,5,8,8a-hexahydroisoquinolin-6-yl)benzoic acid], for which the pEC50 under setting [1] was 6.06.
As for `CCOC(=O)c1cnc(N2CC=C3C(C)(C)C(c4ccc(C(=O)O)cc4)=CC[C@]3(C)C2)s1` [Example B14], under setting [2], the pEC50 is 5.52 to 6.30.
Consider `CC1(C)C(c2ccc(C(=O)O)cc2)=CC[C@]2(C)CN(C(=O)c3ccccc3-c3nc4cc(Br)c(Br)cc4[nH]3)CC=C12` [Example 99, (S)-4-(2-(2-(5,6-dibromo-1H-benzo[d]imidazol-2-yl)benzoyl)-5,5,8a-trimethyl-1,2,3,5,8,8a-hexahydroisoquinolin-6-yl)benzoic acid], for which the pEC50 under setting [1] was 7.80.
